Test results: patent US4076947A, “Cycloalkyl and cycloalkenyl prostaglandin congeners” (American Cyanamid Company, priority 1977, dated 1978)
Read-outs that look alike come from different tables or passages of the source.

How the values were obtained:
Type in all cases: in vivo
[1] = test system: bronchospasms elicited by intravenous injections of histamine; assay: Bronchodilator activity, Konzett procedure, against histamine; conditions: three logarithmic cumulative intravenous doses, guinea pigs
Protocol: (§1) Bronchodilator activity was determined in guinea pigs against bronchospasms elicited by intravenous injections of 5-hydroxytryptamine, histamine or acetylcholine by the Konzett procedure. [See J. Lulling, P. Lievens, F. El Sayed and J. Prignot, Arzneimittel-Forschung, 18, 995 (1968)].
(§2) In the Table which follows bronchodilator activity for representative compounds of this invention against one or more of three spasmogenic agents is expressed as an ED50 determined from the results obtained with three logarithemic cumulative intravenous doses.

[2] = test system: bronchospasms elicited by intravenous injections of 5-hydroxytryptamine; assay: Bronchodilator activity, Konzett procedure, against 5-hydroxytryptamine; conditions: Cavia porcellus, three logarithmic cumulative intravenous doses, guinea pigs, read-out: ED50, spasmogenic agent 5-hydroxytryptamine
Protocol: as §1, §2

[3] = test system: bronchospasms elicited by intravenous injections of acetylcholine; assay: Bronchodilator activity, Konzett procedure, against acetylcholine; conditions: Cavia porcellus, three logarithmic cumulative intravenous doses, guinea pigs, read-out: ED50, spasmogenic agent acetyl choline
Protocol: as §1, §2

[4] = test system: ulcerogenic properties of indomethacin; assay: Protection against indomethacin-induced gastric ulcers in rats (ulcer score); conditions: total oral dose 6.25 mg./kg. in two halves; indomethacin 20 mg./kg. s.c.; scale 0-4; control score 3.0; lowering by 0.5 or more = active
Text: The novel compounds of the present invention have potential utility as hypotensive agents, anti-ulcer agents, agents for the treatment of gastric hypersecretion and gasteric erosion, bronchodilators, abortifacients, agents for the induction of labor, agents for the induction of menses, fertility-controlling agents, central nervous system regulatory agents, salt and water-retention regulatory agents, diuretics, fat metabolic regulatory agents, serum-cholesterol lowering agents, anti-inflammatory agents and as agents for the inhibition of platelet aggregation. […] The compounds of this invention provide protection against the ulcerogenic properties of indomethacin. A measure of this utility which also measures potential anti-ulcer properties is the assay which follows.
Rats were starved for 48 hours (water was given ad libitum). Indomethacin (20 mg./kg. of body weight) was administered by the subcutaneous route and one-half the dose of the test compound was administered by gavage at the same time. After three hours, the second half of the test compound was administered also by gavage. Five hours after the administration of indomethacin the animals were decapitated and the stomachs removed. The stomachs were washed with distilled water, blotted on gauze, cut along the larger curvature, and the contents rinsed with distilled water. […]

SMILES	ED50 [2]	ED50 [3]	Score, Treated [4]	also measured
O=C(O)CCCCCCC1C(=O)C=CC1C=CC(O)CC1CCCC1 (stereo not drawn) [d,1-9-oxo-15-hydroxy-17,20-methano-10,13-trans-prostadienoic acid]	0.0546 mg/kg	0.292 mg/kg	–	ED50 ([1]; Cavia porcellus, iv, read-out: ED50, spasmogenic agent histamine): 0.041 mg/kg
O=C(O)CCCCCCC1C(=O)CC(O)C1C=CC(O)CC1CCCC1 (stereo not drawn) [d,l 9-oxo-11α,15-dihydroxy-17,20-methano-13-trans-prostenoic acid]	0.0018 mg/kg	0.0013 mg/kg	–	–
O=C(O)CCCCCCC1C(=O)CC(O)C1C=CC(O)CC1CCCC1 (stereo not drawn) [d,l 9-oxo-11α,15-dihydroxy-17,20-methano-13-trans-prostenoic] [d,l 9-oxo-11α,15-dihydroxy-17,20-methano-13-trans-prostenoic acid]	–	–	1.5	ED50, spasmogenic agent histamine ([1]; listed as d,1-9-oxo-11α-15-dihydroxy-17,20-methano-13-trans-prostenoic acid): 0.000444 mg/kg
O=C(O)CCCCCCC1C(=O)CC(O)C1C=CC(O)CC1CCCC1 (stereo not drawn) [d,l 9-oxo-11α,15-epi-dihydroxy-17,20-methano-13-trans-proste] [d,l 9-oxo-11α,15-epi-dihydroxy-17,20-methano-13-trans-prostenoic acid]	–	–	2.3	ED50, spasmogenic agent histamine ([1]; listed as d,1-9-oxo-11α-15-epi-dihydroxy-17,20-methano-13-trans-prostenoic acid): 0.042 mg/kg
O=C(O)CCCCCCC1C(=O)CC(O)C1C=CC(O)CC1CCCC1 (stereo not drawn) [d,l 9-oxo-11α,15-epi-dihydroxy-17,20-methano-13-trans-prostenoic acid]	–	–	–	ED50 ([2]; no power of ten printed): 0.228 mg/kg
